Format in all cases: cell-based
Test [1] relates to CHO cells. The test can be described thus: Cell surface biotinylation for cargo (FITC-Avidin) uptake, FACS. The note with it: CHO cells pretreated 30 minutes at 4° C. at 185 μM, then 75 pmol FITC-Avidin, one hour at 37° C. On the procedure: (§1) Biotin-HPDP (Pierce, #21341) was solubilized in DMF and diluted in PBS (pH=7.4) to a final concentration of 100 μg/ml. 500 μl of this solution (=92.6 nmol) were incubated on CHO and HeLa cells (1×10^6 cells per Well) for 30 minutes at 4° C. After washing twice with PBS, 5 μg (=75 pmol) Avidin-FITC (Sigma, #A9275) were added and cells were incubated for 1 h at 37° C. After incubation, cells were washed twice with PBS and harvested with Trypsin-EDTA (Invitrogen, #25300-054). […] 1000 cells per sample were counted.
(§2) Instead of Biotin-HPDP, also Biotin (Sigma, #B4639), Biotin-Maleimid (Sigma, #B1267) or PBS (for determination of unspecific binding of Avidin-FITC) was incubated on the cells at equimolar concentrations.

The test system of test [2] is HeLa cells. Described as above. The note with it: HeLa cells pretreated 30 minutes at 4° C. at 185 μM, then 75 pmol FITC-Avidin, one hour at 37° C. On the procedure:
as §1, §2

The subject of test [3] is HepG2 cells. The test can be described thus: Uptake of conjugates into cells, epifluorescence microscopy. The note with it: 1 h incubation, 5 μM, fixed with paraformaldehyde. The procedure: (§3) Corresponding cell lines were seeded in 8-chamber sample carriers (Falcon, #4108, BD Bioscience, Belgium) resulting in about 70-80% confluence next day. Cells were incubated along with inventive conjugates for 1 h at 37° C. and 5% CO2 in an incubator (c=5 μM). Subsequently thereto cells were washed twice with PBS and fixed with a solution containing 4% paraformaldehyde. The nucleoli were colored by using the fluorescence dye DAPI (0.3 μM) or propidiumiodid (3 μM) and cells were embedded (Vectashield, Vector Laboratories, Burlingame, Calif., USA). Photographs were taken using a Sony 3CCD camera having an Axiovert 135-microscope (Carl-Zeiss, Göttingen, Germany; objective: Plan-Neofluar 100×/1.3 oil). Optical transsections for laser scanning microscopy were performed using a confocal microscope having three channels (TCS 4D; Leica Inc. Deerfield, Ill.) equipped with a Plan Apo 63×/1.32 oil objective). Both fluorescence dyes FITC and propidiumiodide were irradiated at wavelengths 488 nm and 567 nm using an argon/krypton laser. 256×256 8 bit pictures were generated having an axial distance of 250 nm and a pixel size of […]. Each picture series consisted of about 20-25 pictures. Both fluorochromes were mapped sequentially in the same nucleolus layer.
Therefore, HepG2 cells were incubated for 1 h with FITC-labelled BSA conjugates (5 μm) and fixed with paraformaldehyde. Results were analysed by epifluorescence microscopy (see FIG. 2). The cellular and nuclear epifluorescence photographs show an FITC signal of BSA in the left column and an FITC-BSA-TP signal in the right column. The corresponding nucleoli were colored using the fluorescent dye propidiumiodid.
Dextran constructs and modifications were prepared analogously to BSA constructs as shown above in section 2.1. As a starting material an amino-modified dextran was used having a molecular weight of 70,000 (MW). […] Analysis was carried out using epifluorescence microscopy (see FIG. 4). The corresponding nucleoli were colored using the fluorescent dye propidiumiodid.
Similar as shown in 2.1 and 2.2 IgG1 constructs were analyzed as to whether they may be transported into the cells upon TP modification. IgG1 constructs and modifications were prepared analogously to BSA and dextran constructs as shown above in sections 2.1 and 2.2. As a starting material bovine IgG was used having a molecular weight of approximately 130,000 (MW). […] Analysis was carried out using epifluorescence microscopy (see FIG. 5). The corresponding nucleoli were colored using the fluorescent dye propidiumiodid.
PEG based negatively charged liposomes were used showing distal unmodified (carboxylic moiety) or TP-modified PEG chains. The liposomes were modified with fluorescence labelled lipids. Thereafter, HepG2 cells were coincubated with fluorescence labelled liposomes and fixed at different times. In order to detect uptake by cells and nucleus, epifluorescence microscopy was carried out (see FIG. 7). The nucleoli were colored with DAPI. From top to bottom a control experiment and the results from 1, 1.5, 2.5 and 4 h incubation are shown.
Therefore, a reporter plasmid encoding the luciferase gene and having a size of 6.4 kb was TP modified and incubated with HepG2 cells for 1 h.

Test [4] relates to HepG2 cells. In words: Cellular and nuclear uptake, confocal laser scanning microscopy. The procedure: as §3
Confocal laser scanning microscopy was additionally carried out (see FIG. 3), since in epifluorescence, microscopy the resulting signal assumable may be due to association of the FITC-BSA-TP conjugates with the nuclear membrane.

The test system of test [5] is intact cells. The test can be described thus: Dependency of cellular and nuclear uptake on TP-substituent (chemical modification), intact cells. The note with it: chemically modified TP-substituent of FITC-BSA-TP. On the procedure:
1.3 Modification of FITC-BSA-TP Conjugates FITC-BSA was reacted with a 10-fold excess of cystein in PBS (pH=8, He-saturated) for 3 h. Photometric determination of cleaved thiopyridone indicated complete reaction of FITC-BSA-TP to FITC-BSA-Cys. The conjugate was purified chromatographically (Sephadex G-25 superfine HR 10/10 column; Pharmacia, Uppsala, Sweden). FITC-BSA-TP was reacted in presence of 13 mM DTT for 2 h and purified by chromatography in order to obtain a FITC-BSA conjugate with free thiol-function. Determination of degree of conjugation with Ellmanns' reagent indicated complete separation of the thiopyridone moiety, which, in consequence, led to FITC-BSA-SH. The synthesized FITC-BSA-SH conjugate was further reacted with a 50-fold excess of N-ethylmaleimide for 2 h and purified by chromatography subsequently. Controlling the product for remaining thiol moieties by using Elmanns' reagent indicated a complete reaction to FITC-BSA-NEM. 1.4 Coupling of FITC and SPDP to plasmid-DNA Coupling of FITC and SPDP with plasmid-DNA was carried out by photochemical coupling using psoralenamin. Therefore, a kit from company Sima was used (PS-amine). Coupling was carried out following the manufacturers' instructions. 4 μl of reconstituted psoralenamine solution (4.83 psoralenamine) were pipetted to 100 μl solubilized DNA (μCLuc in pur. water, 200 μg/ml DNA). The resulting solution was vortexed vigorously. The solution was irradiated with UV (λ=366 nm, 6 watt, 850 μwatt/cm^2) for 45 minutes on ice. Portions of each 50 μl were purified using a G-25 Microspin column (Amersham) and, subsequently, 2 μl 1×PBS were added. To one 50 μl fraction of the purified Psoralenamin-coupled DNA 2 μl FITC-NHS solution ([…] in DMF) were added. To the other 50 μl fraction a mixture consisting of 2 μl FITC-NHS (10 mg/ml in DMF) 2 μl SPDP (10 mg/ml in EtOH) were added. The solutions were agitated for 1.5 h at room temperature. Subsequent thereto plasmid-DNA conjugates were purified repeatedly using a G-25 Microspin column (Amersham), and used for cell culture experiments. […]

Test [6] deals with HepG2 cells. In words: Quantification of cellular and nuclear uptake by flow cytometry (FACS). The note with it: 1 h incubation; for nuclear uptake, nucleus associated FITC fluorescence (FACS): cell lysis with Nonidet P 40, released nucleoli; for cellular uptake (FACS): whole cells detached with trypsine. The procedure:
Therefore, HepG2 cells were incubated for 1 h with FITC labelled constructs or with FITC labelled and TP-modified conjugates as used in experiments 1 to 4. After incubation cells were detached from the bottom of the cell culture plates (whole cells) by using either a trypsine containing solution or a trypsine containing solution supplemented with detergent Nonidet P 40. Detergent Nonidet P 40 leads to lysis of cytoplasm membranes and release of nucleoli. Propidiumiodid was added to trypsine buffer in order to identify the nucleoli.

The test system of test [7] is HepG2 cells. The test can be described thus: Uptake in non-fixed and lysed cells, epifluorescence microscopy. The procedure:
In order to exclude artifacts resulting from fixing of cells FITC-modified BSA and FITC-BSA-TP conjugates (5 μM) were incubated for 1 h with HepG2 cells. Subsequently, cells were immediately transferred in PBS or lysed with lysis buffer within 30 minutes and analyzed via epifluorescence microscopy. […] Consequently, artifacts can be excluded due to fixing of cells.
Additionally, cytoplasma membrane of HepG2 of cells was lysed with lysis buffer (20 mM HEPES, 10 mM KCl, 0.5 mM EDTA, 0.1% Triton X-100, pH7.5) subsequent to incubation. […] Consequently, FITC-BSA-TP conjugates are localized in the nucleus.

The subject of test [8] is HepG2 cells. The test can be described thus: Uptake of β-galactosidase, activity visualized by X-Gal. The note with it: 5 μM, 1 h or 24 h. The procedure:
Analogous to sections 2.1 to 2.3 above the enzyme β-galactosidase was modified with TP. […] Subsequent to modification HepG2 cells were incubated with (TP) modified β-galactosidase (5 μM) for 1 h or 24 h and then fixed in paraformaldehyde. β-galactosidase activity was visualized by using X-Gal (see FIG. 6).

Entries after “also recorded” stand apart in the source; their conditions may differ.

Turning to `O=C(CCCC[C@@H]1SC[C@@H]2NC(=O)N[C@@H]21)NCCCCCCNC(=O)CCSSc1ccccn1` [Biotin-HPDP, N-[6-(Biotinamido)hexyl]-3′-(2′-pyridyldithio)propionamide], the “delivery of cargo (FITC-Avidin) to cells, FITC-positive cells by FACS” value in test [1] and in test [2] was “efficiently deliver cargo molecules to cells” each time.

As for “FITC-BSA-TP: FITC-labelled BSA reacted with SPDP; thiopyridyl (PDP) conjugation degree ~9-10 per BSA”, in test [3], the “cellular uptake (uptake into cytoplasm)” value was “uptake of FITC-BSA-TP constructs into cytoplasm and nucleus”; the “nuclear uptake (uptake into the nucleus)” value was “clearly observable; also recorded: uptake of FITC-BSA-TP constructs into cytoplasm and nucleus”. Moreover, in test [4], the “cellular uptake (localization in the cytoplasm)” value is listed as “cellular uptake” and the “nuclear uptake (localization in the nucleus)” value was “Uptake of BSA into the nucleus is clearly observable; also recorded: nuclear uptake of FITC-BSA-TP is observable”. For the same molecule, the “cellular or nuclear uptake” value in test [5] was “cellular and nuclear uptake are only observable if an intact TP-substituent is present”. For the same molecule, in test [6], the “nuclear uptake, nucleus associated FITC fluorescence (FACS)” value (“nuclear uptake … (FACS)” below) is on record as 63% and the “cellular uptake (FACS)” value was determined as 78%. For the same molecule, in test [7] (5 μM, 1 h, transferred in PBS without fixing, epifluorescence), the “distribution in fixed versus non-fixed cells” value is “identical in both fixed and non-fixed HepG2 cells”. In addition, the “fluorescence signal after lysis of cytoplasma membrane” value in test [7] (lysis buffer with 0.1% Triton X-100 after incubation) is “a fluorescence signal was clearly observed in the nucleus”.

Consider “FITC-BSA: BSA labelled with carboxyfluorescein-N-hydroxysuccinimidester, without TP modification”, for which, in test [3], the “cellular uptake (uptake into cytoplasm)” value is “Uptake of non-modified FITC-BSA into cytoplasm of HepG2 cells could also be observed” and the “nuclear uptake (uptake into the nucleus)” value is reported as “no uptake of FITC-BSA into the nucleus could be observed”. Moreover, in test [4], the “cellular uptake (localization in the cytoplasm)” value was “localization in the cytoplasm” and the “nuclear uptake (localization in the nucleus)” value was “no localization of non-modified FITC-BSA in the nucleus could be observed”. Moreover, in test [6], the “nuclear uptake … (FACS)” value is reported as 51% and the “cellular uptake (FACS)” value amounted to 55%.

In the case of FITC-Dextran, in test [3], the “cellular uptake (uptake into cytoplasm)” value is listed as “Uptake of non-modified FITC-Dextran into cytoplasm of HepG2 cells could also be observed” and the “nuclear uptake (uptake into the nucleus)” value is reported as “no uptake of FITC-Dextran into the nucleus could be observed”. Besides, in test [6], the “nuclear uptake … (FACS)” value is given as 7% and the “cellular uptake (FACS)” value stood at 25%.

Regarding “FITC-BSA-NEM: FITC-BSA-SH reacted with excess N-ethylmaleimide, thiol blocked”, the “cellular or nuclear uptake” value in test [5] was “Neither the free sulfhydryl moiety nor the sulfhydryl moiety blocked by N-ethylmaleimide mediated cellular or nuclear uptake”.

Take “non-modified β-galactosidase: enzyme β-galactosidase without TP modification, control”: in test [8], the “cellular uptake of β-galactosidase” value is “negligible” and the “nuclear uptake of β-galactosidase” value is recorded as “no nuclear uptake”.

On to Biotin-Maleimid, for which the “delivery of cargo (FITC-Avidin) to cells, FITC-positive cells by FACS” value in test [1] and in test [2] was “highly efficient cargo accumulation at the cellular surface” throughout.

Turning to “FITC-BSA-SH: FITC-BSA-TP reacted with DTT, giving FITC-BSA conjugate with free thiol-function”, the “cellular or nuclear uptake” value in test [5] is “Neither the free sulfhydryl moiety nor the sulfhydryl moiety blocked by N-ethylmaleimide mediated cellular or nuclear uptake”.

These data come from US20080305038A1, “Transport of Nano-and Macromolecular Structures Into Cytoplasm and Nucleus of Cells” (LUDWIG-MAXIMILIANS-UNIVERSITÄT, priority 2005, published 2008).
